Measurements taken from patent publication US9822099B2, “Triazole derivatives” (priority 2013, dated 2017).
Like-named read-outs stand apart in the source and are kept apart here. Marks after values point to notes of the source that are not given here.

Legend:
Botrytis cinerea = experiment: Example A: in vivo preventive test on Botrytis cinerea (grey mould); conditions: gherkin plants, preventive spray, evaluated 4 to 5 days after inoculation
Method: (§1) The young plants of gherkin are treated by spraying the active ingredient prepared as described above. Control plants are treated only with an aqueous solution of acetone/Dimethyl sulfoxide/Tween®. After 24 hours, the plants are contaminated by spraying the leaves with an aqueous suspension of Botrytis cinerea spores.

Puccinia recondita = experiment: Example B: in vivo preventive test on Puccinia recondita (brown rust on wheat); conditions: wheat plants, preventive spray, evaluated 11 days after inoculation
Method: as §1, with “wheat” for “gherkin”, “Puccinia recondita” for “Botrytis cinerea”

Septoria tritici = experiment: Example D: in vivo preventive test on Septoria tritici (leaf spot on wheat); conditions: wheat plants, preventive spray, evaluated 24 days after inoculation
Method: as §1, with “wheat” for “gherkin”, “Septoria tritici” for “Botrytis cinerea”

Sphaerotheca fuliginea = experiment: Example E: in vivo preventive test on Sphaerotheca fuliginea (powdery mildew on cucurbits); conditions: gherkin plants, preventive spray, evaluated 15 days after inoculation
Method: as §1, with “Sphaerotheca fuliginea” for “Botrytis cinerea”

Uromyces appendiculatus = experiment: Example F: in vivo preventive test on Uromyces appendiculatus (bean rust); conditions: bean plants, preventive spray, evaluated 11 days after inoculation
Method: as §1, with “bean” for “gherkin”, “Uromyces appendiculatus” for “Botrytis cinerea”

[1] = test system: Blumeria graminis f. sp. hordei; experiment: Example G: Blumeria test (barley)/preventive; format: in vivo; conditions: 500 ppm of active ingredient, preventive, evaluated 7 days after inoculation
Method: (§2) Solvent: 49 parts by weight of N,N-dimethylacetamide Emulsifier: 1 part by weight of alkylaryl polyglycol ether To produce a suitable preparation of active compound, 1 part by weight of active compound or active compound combination is mixed with the stated amounts of solvent and emulsifier, and the concentrate is diluted with water to the desired concentration. To test for preventive activity, young plants are sprayed with the preparation of active compound or active compound combination at the stated rate of application. After the spray coating has been dried, the plants are dusted with spores of Blumeria graminis f. sp. hordei.

Fusarium culmorum = experiment: Example H: Fusarium culmorum-test (wheat)/curative; format: in vivo; conditions: 500 ppm of active ingredient, curative, evaluated 5 days after inoculation
Method: (§3) Solvent: 49 parts by weight of N,N-dimethylacetamide
(§4) Emulsifier: 1 part by weight of alkylaryl polyglycol ether
(§5) To produce a suitable preparation of active compound, 1 part by weight of active compound or active compound combination is mixed with the stated amounts of solvent and emulsifier, and the concentrate is diluted with water to the desired concentration.
To test for curative activity, young plants are slightly injured by using a sandblast and afterwards they are sprayed with a conidia suspension of Fusarium culmorum and placed for 24 hours in a greenhouse under a translucent incubation cabinet at a temperature of approximately 22° C. and a relative atmospheric humidity of approximately 100% and are subsequently sprayed with the preparation of active compound at the stated rate of application.
After the spray coating has been dried, the plants remain in the greenhouse under translucent incubation cloches at a temperature of approximately 22° C. and a relative atmospheric humidity of approximately 100%.
(§6) The test is evaluated 5 days after the inoculation. 0% means an efficacy which corresponds to that of the untreated control, while an efficacy of 100% means that no disease is observed.

[2] = test system: Fusarium nivale (var. majus); experiment: Example J: Fusarium nivale (var. majus)-test (wheat)/preventive; format: in vivo; conditions: 500 ppm of active ingredient, preventive, evaluated 5 days after inoculation
Method: as §3, §4, §5
To test for preventive activity, young plants are sprayed with the preparation of active compound or active compound combination at the stated rate of application.
After the spray coating has been dried, the plants are slightly injured by using a sandblast and afterwards they are sprayed with a conidia suspension of Fusarium nivale (var. majus).
The plants are placed in the greenhouse under a translucent incubation cabinet at a temperature of approximately 10° C. and a relative atmospheric humidity of approximately 100%.
as §6

Leptosphaeria nodorum = experiment: Example K: Leptosphaeria nodorum test (wheat)/preventive; format: in vivo; conditions: 500 ppm of active ingredient, preventive, evaluated 8 days after inoculation
Method: as §2, with “sprayed” for “dusted”, “a spore suspension” for “spores”, “Leptosphaeria nodorum.” for “Blumeria graminis f. sp. hordei.”

Phakopsora pachyrhizi = experiment: Example L: Phakopsora test (soybeans)/preventive; format: in vivo; conditions: preventive, evaluated 7 days after inoculation
Pyrenophora teres = experiment: Example C: in vivo preventive test on Pyrenophora teres (net blotch on barley); conditions: barley plants, preventive spray, evaluated 14 days after inoculation
Method: as §1, with “barley” for “gherkin”, “Pyrenophora teres” for “Botrytis cinerea”

Fusarium graminearum = format: in vivo; conditions: 500 ppm of active ingredient; barley, preventive; evaluated 5 days after inoculation
Pyricularia oryzae = format: in vivo; conditions: 500 ppm of active ingredient; rice, preventive; evaluated 8 days after inoculation
Venturia inaequalis = experiment: Example O: Venturia test (apples)/preventive; format: in vivo; conditions: 100 ppm of active ingredient, preventive, evaluated 10 days after inoculation
Method: Solvent: 24.5 parts by weight of acetone • 24.5 parts by weight of dimethylacetamide Emulsifier: 1 part by weight of alkylaryl polyglycol ether To produce a suitable preparation of active compound, 1 part by weight of active compound is mixed with the stated amounts of solvent and emulsifier, and the concentrate is diluted with water to the desired concentration. To test for preventive activity, young plants are sprayed with the preparation of active compound at the stated rate of application.

SMILES | Eff. % (Botrytis cinerea; 500 ppm of active ingredient) | Eff. % (Puccinia recondita; 500 ppm of active ingredient) | Eff. % (Septoria tritici; 500 ppm of active ingredient) | Eff. % (Sphaerotheca fuliginea; 500 ppm of active ingredient) | Eff. % (Uromyces appendiculatus; 500 ppm of active ingredient) | Eff. % [1] | Eff. % (Fusarium culmorum) | Eff. % [2] | Eff. % (Leptosphaeria nodorum) | LogP (pH 2.7) | Eff. % (Pyrenophora teres; 500 ppm of active ingredient) | Eff. % (Fusarium graminearum) | Eff. % (Phakopsora pachyrhizi; 10 ppm of active ingredient) | Eff. % (Pyricularia oryzae) | Eff. % (Puccinia recondita; 100 ppm of active ingredient) | Eff. % (Septoria tritici; 100 ppm of active ingredient) | Eff. % (Sphaerotheca fuliginea; 100 ppm of active ingredient) | other results
OC(Cc1ccc(Cl)nc1)(Cn1cncn1)C1(Cl)CC1 (stereo not shown) [Example I-4] | 100% | 100% | 96% | 100% | 97% | 100% | 92% | 71% | 80% | 1.84^[a] | – | – | – | – | – | – | – | Eff. % (Phakopsora pachyrhizi; 100 ppm of active ingredient): 95%
OC(Cc1ccncc1C(F)(F)F)(Cn1cncn1)C1(Cl)CC1 (racemic) [Example I-81] | 99% | 100% | 100% | 100% | 100% | 100% | – | 100% | 100% | 2.08^[a] | 97% | 100% | 85% | 100% | – | – | – | –
OC(Cc1cccc(Cl)n1)(Cn1cncn1)C1(Cl)CC1 (stereo not shown) [Example I-29] | 94% | 97% | 100% | 100% | 100% | 100% | 100% | 100% | 100% | 2.18^[a] | 95% | 100% | – | 70% | – | – | – | –
CC(CF)(CF)C(O)(Cc1ccncc1F)Cn1cncn1 (stereo not shown) [Example I-21] | – | – | – | – | – | 100% | 100% | 100% | 94% | 1.27^[a] | – | 100% | 93% | – | 98% | 100% | 100% | Eff. % (Uromyces appendiculatus; 100 ppm of active ingredient): 100%
OC(Cc1ccncc1F)(Cn1cncn1)C1(F)CC1 (stereo not shown) [Example I-19] | – | – | – | – | – | 100% | 100% | 100% | 100% | 0.91^[a] | – | 100% | 96% | 100% | 88% | 75% | 100% | Eff. % (Botrytis cinerea; 100 ppm of active ingredient): 100%; Eff. % (Pyrenophora teres; 100 ppm of active ingredient): 75%; Eff. % (Uromyces appendiculatus; 100 ppm of active ingredient): 98%
OC(Cc1cc(Cl)ncc1Cl)(Cn1cncn1)C1(Cl)CC1 (stereo not shown) [Example I-58] | 98% | 97% | 100% | 100% | 100% | 100% | – | 100% | 93% | 2.53^[a] | 95% | 100% | 89% | 100% | – | – | – | –
OC(Cc1ccnnc1Cl)(Cn1cncn1)C1(Cl)CC1 (stereo not shown) [Example I-45] | – | – | – | – | – | 100% | 100% | 100% | 88% | 1.31^[a] | – | 100% | 93% | – | 97% | 100% | 100% | Eff. % (Uromyces appendiculatus; 100 ppm of active ingredient): 100%
OC(Cc1ccnc(Cl)c1)(Cn1cncn1)C1(Cl)CC1 (stereo not shown) [Example I-39] | 99% | 97% | 100% | 100% | 100% | 100% | 100% | 100% | 100% | 1.76^[a] | 100% | 100% | 88% | 80% | – | – | – | –
CC(CF)(CF)C(O)(Cc1ccnc(Cl)c1F)Cn1cncn1 (stereo not shown) [Example I-61] | 99% | 98% | 100% | 100% | 100% | 100% | 100% | 100% | 75% | 1.87^[a] | 93% | 100% | 80% | – | – | – | – | –
OC(Cc1cc(Cl)nnc1Cl)(Cn1cncn1)C1(Cl)CC1 (stereo not shown) [Example I-46] | – | – | – | – | – | – | – | 100% | 83% | 1.92^[a] | – | 92% | – | 78% | 88% | 100% | 100% | –
OC(Cc1cccnc1Cl)(Cn1cncn1)C1(Cl)CC1 (single isomer, unassigned) [Example I-95] | – | – | – | – | – | 100% | – | 100% | 100% | 1.81^[a] | – | 100% | – | 100% | – | – | – | LogP (pH 7.8): 1.79^[b];
OC(CCc1ccc(Cl)cc1)(Cc1ccncc1Cl)Cn1cncn1 (racemic) [Example I-69] | – | 98% | 100% | 100% | 100% | 100% | – | – | 89% | 2.40^[a] | 93% | 71% | – | – | – | – | – | Eff. % (Phakopsora pachyrhizi; 100 ppm of active ingredient): 91%; Eff. % (Venturia inaequalis): 100%
OC(Cc1ccncc1Cl)(Cn1cncn1)C1CCC1 (racemic) [Example I-77] | 100% | 98% | 100% | 100% | 100% | 100% | – | 83% | – | 1.46^[a] | 86% | 86% | – | 86% | – | – | – | Eff. % (Phakopsora pachyrhizi; 100 ppm of active ingredient): 100%
